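Cells were grown in 96-well plates and exposed to each compound for 48 hours at five concentrations; endpoints were interpolated linearly between bracketing concentrations, or set to the highest concentration if not reached. GI50 = concentration required for 50% inhibition of growth. Definition used: TGI = concentration required for complete inhibition of growth.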

Data on 9 compounds can be found in PubChem BioAssay (NCI).

Some test systems named below: A549 NSCLC; HCT-116 colon; HOP-62 NSCLC; K-562 leukemia; OVCAR-3 ovarian; OVCAR-4 ovarian; RPMI-8226 leukemia; SF-268 CNS; SF-295 CNS; SK-MEL-2 melanoma; SK-MEL-5 melanoma; SNB-19 CNS; SR leukemia; DMS 273 small cell lung; SNB-78 CNS; NCI/ADR-RES ovarian.
Test in all cases: NCI anticancer screen, dose series, 48 h

As to `O=C1C(Cl)N(c2c(Cl)cccc2Cl)C1c1c[nH]c2ccccc12` (stereo not drawn), the TGI in the test with A549 NSCLC, with HCT-116 colon, in the test on HOP-62 NSCLC, in the test on K-562 leukemia, in the test on OVCAR-3 ovarian and in the test with OVCAR-4 ovarian was more than 100 µM in each case. Moreover, the TGI in the test with RPMI-8226 leukemia, with SF-268 CNS, in the test with SF-295 CNS, in the test on SK-MEL-2 melanoma, in the test on SK-MEL-5 melanoma and in the test with SNB-19 CNS was more than 100 µM throughout. The same compound displayed a TGI in the test with SR leukemia of more than 100 µM.

As to `COc1cc(OC2OC(CO)C(O)C(O)C2O)c2c(O)c3c(=O)cc(C)oc3cc2c1` (stereo not drawn), the TGI in the test with A549 NSCLC, in the test with HCT-116 colon, in the test on HOP-62 NSCLC, in the test on K-562 leukemia, in the test with OVCAR-3 ovarian and with OVCAR-4 ovarian was more than 100 µM each time. The TGI with RPMI-8226 leukemia, in the test with SF-268 CNS, in the test with SF-295 CNS, with SK-MEL-2 melanoma, in the test with SK-MEL-5 melanoma and with SNB-19 CNS was more than 100 µM throughout.

As for `CCOC(=O)Cc1cc(OC)c(OC)cc1/C(Cl)=C(\CO)c1ccc(OC)c(OC)c1`, the TGI in the test with A549 NSCLC, with DMS 273 small cell lung, in the test with HCT-116 colon, with K-562 leukemia, in the test on OVCAR-3 ovarian and in the test on OVCAR-4 ovarian was more than 100 µM each time. The TGI in the test on RPMI-8226 leukemia, with SF-295 CNS, with SK-MEL-5 melanoma, in the test with SNB-19 CNS and with SNB-78 CNS was more than 100 µM in each case.

Take `C[N+](C)(CCCCCC[N+](C)(C)CCCN1C(=O)c2cccc3cccc(c23)C1=O)CCCN1C(=O)c2cccc3cccc(c23)C1=O`: the TGI in the test with A549 NSCLC, in the test with HCT-116 colon, in the test with K-562 leukemia, in the test with NCI/ADR-RES ovarian, with OVCAR-3 ovarian and in the test with OVCAR-4 ovarian was more than 100 µM each time. The TGI with RPMI-8226 leukemia, with SF-268 CNS, in the test on SF-295 CNS, in the test with SK-MEL-2 melanoma, in the test with SK-MEL-5 melanoma and in the test with SNB-19 CNS was more than 100 µM in each case. For the same compound, the TGI in the test on SR leukemia is more than 100 µM.

Take `CCNC(=O)C(C)C1CCC2(C)C=CC(=O)C(C)=C2C1O` (stereo not drawn): the TGI with A549 NSCLC, in the test with DMS 273 small cell lung, with HCT-116 colon, with HOP-62 NSCLC, in the test on K-562 leukemia and in the test on NCI/ADR-RES ovarian was more than 100 µM each time. Further, the TGI with OVCAR-3 ovarian, in the test on OVCAR-4 ovarian, with RPMI-8226 leukemia, in the test on SF-268 CNS, with SF-295 CNS and with SK-MEL-2 melanoma was more than 100 µM throughout. In addition, the TGI in the test on SK-MEL-5 melanoma, in the test on SNB-19 CNS and with SNB-78 CNS was more than 100 µM each time.

Regarding `O=S(O)CCCCCSSc1ccccc1`, the TGI with HCT-116 colon is 70.2 µM; in the test with HOP-62 NSCLC, more than 100 µM; in the test with K-562 leukemia, more than 100 µM; with OVCAR-3 ovarian it was more than 100 µM; in the test on OVCAR-4 ovarian it was more than 100 µM; in the test with RPMI-8226 leukemia, 56.4 µM. For the same compound, the TGI in the test on SF-268 CNS was 85.5 µM; in the test with SK-MEL-2 melanoma, 53.3 µM; in the test with SNB-19 CNS it was more than 100 µM; in the test on SNB-78 CNS, more than 100 µM; in the test on SR leukemia, 35 µM.

Regarding `O=C(NN1C(=O)C(Cl)C1c1ccccc1O)c1ccccc1O` (stereo not drawn), the TGI in the test on A549 NSCLC, in the test with HCT-116 colon, in the test with HOP-62 NSCLC, with K-562 leukemia, in the test with OVCAR-3 ovarian and with OVCAR-4 ovarian was more than 100 µM throughout. The TGI with RPMI-8226 leukemia is more than 100 µM; with SF-268 CNS, more than 100 µM; with SF-295 CNS, more than 100 µM; in the test on SK-MEL-2 melanoma it was more than 100 µM; in the test with SK-MEL-5 melanoma it was more than 100 µM; in the test on SNB-19 CNS, 57.9 µM. This compound also displayed a TGI in the test on SR leukemia of more than 100 µM.

For the compound `N#C/C(=C\c1ccncc1)c1csc2ccccc12`, the TGI with A549 NSCLC was more than 100 µM; in the test with DMS 273 small cell lung, 73.6 µM; in the test with HCT-116 colon it was 33.4 µM; in the test with HOP-62 NSCLC, 63.3 µM; in the test on K-562 leukemia, 50.8 µM; in the test on NCI/ADR-RES ovarian it was 61.8 µM. Further, the TGI in the test with OVCAR-3 ovarian was 42.9 µM; in the test on OVCAR-4 ovarian, more than 100 µM; in the test with RPMI-8226 leukemia it was 52.3 µM; in the test with SF-268 CNS, 82.5 µM; with SF-295 CNS, more than 100 µM; with SK-MEL-2 melanoma, 42.2 µM. In addition, the TGI was determined as 33.2 µM in the test with SK-MEL-5 melanoma, 69.6 µM with SNB-19 CNS and 73.8 µM with SNB-78 CNS.

In the case of `CCCCCC(=O)N[C@@H](c1ccco1)[C@@H](O)C(=O)O[C@H]1C[C@@]2(O)[C@@H](OC(=O)c3ccccc3)[C@@H]3[C@]4(OC(C)=O)CO[C@@H]4C[C@H](O)[C@@]3(C)C(=O)[C@H](OC(C)=O)C(=C1C)C2(C)C`, the TGI in the test on HCT-116 colon is more than 25 µM; with HOP-62 NSCLC, more than 25 µM; in the test on NCI/ADR-RES ovarian, more than 25 µM; in the test on OVCAR-3 ovarian it was 0.000716 µM; with OVCAR-4 ovarian it was more than 25 µM; in the test on RPMI-8226 leukemia, 8.08 µM. Also, the TGI in the test with SF-268 CNS is more than 25 µM; in the test with SF-295 CNS, 0.0284 µM; with SK-MEL-5 melanoma, 4.52 µM; in the test on SNB-19 CNS, more than 25 µM; in the test with SR leukemia, more than 25 µM. Also, the GI50 in the test on NCI/ADR-RES ovarian is 0.617 µM; with SF-268 CNS, 0.0161 µM; in the test on SF-295 CNS, 0.0009 µM; in the test with SNB-19 CNS, 0.00055 µM.
